Experimental data from ChEMBL document CHEMBL5620403, “Design, synthesis, activity and molecular dynamics studies of 1,3,4-thiadiazole derivatives as selective allosteric inhibitors of SHP2 for the treatment of cancer” (Eur J Med Chem, 2023).
Calls of active or inactive are those of the source. The calls are words filed in the database; no cut-off is given here.

Legend:
[1] = biological target: Tyrosine-protein phosphatase non-receptor type 11 (Homo sapiens, UniProt Q06124, E76K); test: Inhibition of full length recombinant human SHP2 E76K mutant (1 to 525 residues) using DIPMUP as substrate preincubated for 30 mins followed by substrate addition and measured after 30 mins by fluorescence based analysis
MV4-11 [2] = test: Induction of apoptosis in human MV4-11 cells assessed as viable cells at 1.25 uM measured after 4 hrs by Annexin V-FITC/7-AAD staining based flow cytometric analysis (reference value: 95.9%); format: functional; details: read-out: Activity
[3] = biological target: T1, Tyrosine-protein phosphatase non-receptor type 11 (Homo sapiens, UniProt Q06124); test: Inhibition of full length wild type recombinant human SHP2 (1 to 525 residues) using DIPMUP as substrate preincubated for 30 mins followed by substrate addition and measured after 30 mins by fluorescence based analysis
T1 sequence (Q06124 whole entry): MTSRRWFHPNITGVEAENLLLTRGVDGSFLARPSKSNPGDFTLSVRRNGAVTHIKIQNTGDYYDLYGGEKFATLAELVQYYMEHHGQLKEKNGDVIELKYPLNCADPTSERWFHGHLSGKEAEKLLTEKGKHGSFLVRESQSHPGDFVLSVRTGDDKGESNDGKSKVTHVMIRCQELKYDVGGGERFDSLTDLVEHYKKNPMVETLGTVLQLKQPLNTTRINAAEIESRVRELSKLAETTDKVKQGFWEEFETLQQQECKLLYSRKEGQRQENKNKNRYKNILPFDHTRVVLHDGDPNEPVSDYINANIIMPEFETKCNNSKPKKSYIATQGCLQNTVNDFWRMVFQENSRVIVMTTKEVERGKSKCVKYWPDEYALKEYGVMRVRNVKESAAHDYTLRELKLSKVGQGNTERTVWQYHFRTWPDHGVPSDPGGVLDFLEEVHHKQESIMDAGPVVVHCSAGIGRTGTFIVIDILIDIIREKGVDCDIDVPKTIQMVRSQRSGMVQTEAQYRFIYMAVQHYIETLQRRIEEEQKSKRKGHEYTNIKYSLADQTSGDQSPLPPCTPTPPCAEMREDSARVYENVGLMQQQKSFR

MV4-11 [4] = test: Induction of apoptosis in human MV4-11 cells assessed as late apoptotic cells at 5 uM measured after 4 hrs by Annexin V-FITC/7-AAD staining based flow cytometric analysis (reference value: 1.58%); format: functional
[5] = biological target: T2, Tyrosine-protein phosphatase non-receptor type 11 (Homo sapiens) (UniProt Q06124); test: Inhibition of SHP2 in human NCI-H358 cells assessed as reduction in Erk1/2 phosphorylation level at upto 20 uM measured after 8 hrs by Western blot analysis; format: cell-based
T2 sequence (whole entry): T1 sequence (Q06124 whole entry)

MV4-11 [6] = test: Induction of apoptosis in human MV4-11 cells assessed as late apoptotic cells at 5 uM measured after 1 hrs by Annexin V-FITC/7-AAD staining based flow cytometric analysis (reference value: 0.98%); format: functional
MV4-11 [7] = test: Antiproliferative activity against human MV4-11 cells assessed as inhibition of cell growth measured after 72 hrs by CCK8 method; format: functional, cell-based; details: MV4-11, 72 h
MV4-11 [8] = test: Induction of apoptosis in human MV4-11 cells assessed as necrotic cells at 5 uM measured after 4 hrs by Annexin V-FITC/7-AAD staining based flow cytometric analysis (reference value: 0.068%); format: functional
A549 = test: Antiproliferative activity against human A549 cells assessed as inhibition of cell growth measured after 72 hrs by CCK8 method; format: functional, cell-based; details: A549, 72 h
MV4-11 [9] = test: Induction of apoptosis in human MV4-11 cells assessed as early apoptotic cells at 5 uM measured after 2 hrs by Annexin V-FITC/7-AAD staining based flow cytometric analysis (reference value: 2.13%); format: functional
MV4-11 [10] = test: Induction of apoptosis in human MV4-11 cells assessed as necrotic cells at 5 uM measured after 1 hrs by Annexin V-FITC/7-AAD staining based flow cytometric analysis (reference value: 0.068%); format: functional
[11] = biological target: T2, Tyrosine-protein phosphatase non-receptor type 11 (Homo sapiens); test: Inhibition of SHP2 in human MV4-11 cells assessed as reduction in Erk1/2 phosphorylation level at upto 20 uM measured after 4 hrs by Western blot analysis; format: cell-based
MV4-11 [12] = test: Induction of apoptosis in human MV4-11 cells assessed as late apoptotic cells at 2.5 uM measured after 4 hrs by Annexin V-FITC/7-AAD staining based flow cytometric analysis (reference value: 1.58%); format: functional

Chain of Tyrosine-protein phosphatase non-receptor type 11 (Homo sapiens, UniProt Q06124, E76K) (Q06124 2-593 E76K limits assumed): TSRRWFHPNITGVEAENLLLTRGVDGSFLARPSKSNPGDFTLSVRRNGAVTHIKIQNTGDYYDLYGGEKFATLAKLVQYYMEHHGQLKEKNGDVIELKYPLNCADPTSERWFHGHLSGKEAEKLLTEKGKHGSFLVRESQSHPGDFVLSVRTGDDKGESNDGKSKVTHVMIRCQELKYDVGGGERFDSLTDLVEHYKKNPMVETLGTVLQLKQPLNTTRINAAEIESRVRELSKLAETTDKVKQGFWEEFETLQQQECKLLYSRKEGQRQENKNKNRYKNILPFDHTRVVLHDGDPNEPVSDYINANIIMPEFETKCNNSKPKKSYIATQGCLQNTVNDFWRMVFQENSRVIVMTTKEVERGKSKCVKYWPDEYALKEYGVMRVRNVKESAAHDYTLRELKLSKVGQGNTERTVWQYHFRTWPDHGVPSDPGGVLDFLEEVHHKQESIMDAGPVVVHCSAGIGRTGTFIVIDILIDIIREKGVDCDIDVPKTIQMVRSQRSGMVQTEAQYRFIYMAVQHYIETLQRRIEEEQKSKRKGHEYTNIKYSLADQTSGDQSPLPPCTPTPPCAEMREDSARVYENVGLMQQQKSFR

**Q.** Which results are given for `C[C@@H]1OCC2(CCN(c3nnc(Sc4cccc(Cl)c4Cl)s3)CC2)[C@@H]1N`?
**A.** IC50 [1]: 6.88 µM; viability at 1.25 µM (MV4-11 [2]): 95.9%; IC50 [3]: 0.84 µM; Activity (MV4-11 [4]): 5.98%; inhibition [5]: Active; Activity (MV4-11 [6]): 4.39%; IC50 (MV4-11 [7]): 3.85 µM; Activity (MV4-11 [8]): 1.38%; IC50 (A549): 12.1 µM; Activity (MV4-11 [9]): 10.9%; Activity (MV4-11 [10]): 0.91%; inhibition [11]: Active; Activity (MV4-11 [12]): 2.3%
